Source: patent US20250018019A1, “TREATMENT OF INTERFERON DRIVEN INFLAMMATION” (The Provost, Fellows, Foundation Scholars and the other …, priority 2023, published 2025)
Counter-ions that a name gives are not always drawn.

Legend:
BMDMs [1] = experiment: LC-MS steady-state metabolomics / fumarate levels in BMDMs; format: cell-based, mouse; conditions: LPS 4 h; for ratios of ATP/ADP, ATP/AMP, and P-creatine/creatine: BMDMs pre-treated 3 h (FHIN1 10 or 20 μM, DMF 25 μM)
Protocol: (§1) All compounds used DMSO as a vehicle except for 4-hydroxy tamoxifen (EtOH), NAC (PBS), and AOAA for tracing experiments (Media). LPS was used at a concentration of 100 ng/ml for indicated timepoints (2, 3, 4, 6, 8, 24, 48 h). FHIN1 (10 or 20 μM), MMF (50 or 100 μM), DMF (25 μM), AOAA (5 mM), oligomycin (10 μM), CCCP (50 μM) NAC (1 mM), and IMT1 (10 μM) pre-treatments were performed for 3 h prior the addition of LPS. Cells were treated with valinomycin (10 nM) 15 mins before LPS stimulation. Anti-CD210 or IgG control (10 μg/ml) antibodies were added to cells 1 h prior to LPS stimulation. Recombinant mouse IL-10 protein (100 ng/ml) was added to cells at the same time as LPS. Cells were treated with IFN-B1 (220 ng/ml) for 3 h. Cells were treated with C-178 (1 μM) 1 h prior to LPS stimulation or transfection with 2′3′-cGAMP (1.5 μg/ml) for 4 hrs to achieve cGAS-STING activation. Cells were treated with ODN 2088 (1 μM) for 1 hr prior to LPS stimulation or transfection with CPG ODN 1826 (1.5 μg/ml) to achieve TLR9 activation. 3 different timepoints of 4-hydroxy tamoxifen (TAM) (600 nM or 2 μM) or EtOH treatment were performed-these are specified in the individual figure legends. For ‘48 h’ treatments EtOH/TAM was added on day 5 of 6 during the BMDM differentiation protocol. On day 6 they were plated with EtOH/TAM (left overnight) and treated the following day. For ‘72 h’ treatments EtOH/TAM was added on day 4 of 6 during the BMDM differentiation protocol. On day 6 they were plated with EtOH/TAM (left overnight) and treated the following day. For ‘96 h’ treatments EtOH/TAM was added on day 4 of 6 during the BMDM differentiation protocol. On day 6 they were plated with EtOH/TAM and treated 2 days later.
BMDMs (3 independent mice) were plated at 0.5×10^6 cells/well in 12-well plates in technical triplicate per condition, treated as indicated, snap frozen and stored at −80° C. For metabolomics on cytosolic fraction, BMDMs were plated at 10×10^6 cells/10 cm dish and rapid fractionation was performed as previously reported^16. Metabolite extraction solution (MES) (methanol/acetonitrile/water, 50:30:20 v/v/v) was added (0.5 mL per 1×10^6 cells) and samples were incubated for 15 min on dry ice. The resulting suspension was transferred to ice-cold microcentrifuge tubes. Samples were agitated for 20 min at 4° C. in a thermomixer and then incubated at −20° C. for 1 h. Samples were centrifuged at maximum speed for 10 min at 4° C. The supernatant was transferred into a new tube and centrifuged again at maximum speed for 10 min at 4° C. The supernatant was transferred to autosampler vials and stored at −80° C. prior to analysis by LC-MS.
HILIC chromatographic separation of metabolites was achieved using a Millipore Sequant ZIC-PHILIC analytical column (5 μm, 2.1×150 mm) equipped with a 2.1×20 mm guard column (both […] particle size) with a binary solvent system. Solvent A was 20 mM ammonium carbonate, 0.05% ammonium hydroxide; Solvent B was acetonitrile. The column oven and autosampler tray were held at 40° C. and 4° C., respectively. The chromatographic gradient was run at a flow rate of 0.200 mL/min as follows: 0-2 min: 80% B; 2-17 min: linear gradient from 80% B to 20% B; 17-17.1 min: linear gradient from 20% B to 80% B; 17.1-22.5 min: hold at 80% B. Samples were randomized and analysed with LC-MS in a blinded manner and the injection volume was 5 μl. Pooled samples were generated from an equal mixture of all individual samples and analysed interspersed at regular intervals within sample sequence as a quality control. Metabolites were measured with a Thermo Scientific Q Exactive Hybrid Quadrupole-Orbitrap Mass spectrometer (HRMS) coupled to a Dionex Ultimate 3000 UHPLC or with Vanquish Horizon UHPLC coupled to an Orbitrap Exploris 240 mass spectrometer (both Thermo Fisher Scientific) via a heated electrospray ionization source. […]

BMDMs [2] = experiment: Seahorse XF Mito Stress Test (respirometry, OCR); format: cell-based, mouse; conditions: BMDMs pre-treated 3 h, LPS 4 h
Protocol: as §1, with “For ‘72 h’ treatments EtOH/TAM was added on day 4 of 6 during the BMDM differentiation protocol. On day 6 they were plated with EtOH/TAM (left overnight) and treated the following day. For ‘96 h’ treatments EtOH/TAM was added on day 4 of 6 during the BMDM differentiation protocol. On day 6 they were plated with EtOH/TAM and treated 2 days later.” left out

human PBMCs = experiment: ELISA of IFN-β release from human PBMCs; format: cell-based; conditions: human PBMCs pre-treated, LPS 4 h
Protocol: Human blood samples from healthy donors were collected and processed at the School of Biochemistry and Immunology in TBSI (TCD). Blood samples were obtained anonymously and written informed consent for the use of blood for research purposes has been obtained from the donors. All the procedures involving experiments on human samples have been approved by the School of Biochemistry and Immunology Research Ethics Committee (TCD). Experiments were conducted according to the TCD guide on good research practice, which follows the guidelines detailed in the National Institutes of Health Belmont Report (1978) and the Declaration of Helsinki. […] The remaining pellet of mononuclear cells was resuspended, counted, and plated at 1×10^6 cells/ml in RPMI supplemented with FCS (10%) and penicillin/streptomycin (1%). […]
DuoSet ELISA kits for IL-1β, TNFα, IL-6, IL-10, and GDF15 were purchased from R&D Systems and were carried out according to the manufacturer's instructions with appropriately diluted cell supernatants added to each plate in duplicate or triplicate. IFN-β was determined using DuoSet ELISA kit from R&D Systems or Abcam (ab252363). […] Absorbance at 450 nm was quantified using a FLUOstar Optima plate reader. […]

| Structure (SMILES) | ratios of ATP/ADP, ATP/AMP, and P-creatine/creatine (BMDMs [1]) | basal respiration, ATP production and maximal respiration as measured by OCR (BMDMs [2]) | LPS-induced IFN-β release (human PBMCs) | GSSG/GSH ratio (BMDMs [1]; BMDMs pre-treated 3 h) | TCA cycle metabolites including citrate, aconitate, itaconate and succinate (BMDMs [1]; BMDMs pre-treated 3 h) | aconitate/citrate ratio (BMDMs [1]; BMDMs pre-treated 3 h) | fumarate and 2SC accumulation (BMDMs [1]; BMDMs pre-treated 3 h) | glyceraldehyde 3-phosphate (G3P)/2/3-phosphoglycerate (2/3-PG) ratio (BMDMs [1]; BMDMs pre-treated 3 h) | total glutathione (BMDMs [1]; BMDMs pre-treated 3 h) |
| --- | --- | --- | --- | --- | --- | --- | --- | --- | --- |
| COC(=O)/C=C/C(=O)OC [DMF, dimethyl fumarate] | no effect | no effect | suppressed | – | – | – | – | – | – |
| CCOC(=O)[C@@]12CCCC=C1N(Cc1ccc(-c3ccccc3)cc1)C(=O)[C@H]2CC(=O)NC [FHIN1, Fumarate hydratase-IN-1] | reduced | impaired | boosted | unchanged | alterations | decreased | enhanced | increased | depletion |
